One data set concerns COLO-320-DM. Briefly: MTT cell count (ID50), human colon cancer cell line COLO-320-DM. Particulars: 144 h, read-out: ID50 COLO-320. In kind it is cell-based. Here is the method: (§1) In the various assays set forth below the colorimetric determination of the number of cells was carried out by the following procedure using MTT.
(§2) 3-(4,5-dimethylthiazol-2-yl)-2,5-dipenyl tetrazolium bromide (MTT) was prepared as a 5 mg/ml stock solution in phosphate buffered saline, filtered through a 0.22 μm filter and stored for up to two weeks at 4° C. while protected from light. For use in the assay it was diluted to 1 mg/ml in a pH 7.2 solution of phenol-red-free RPMI 1640 tissue culture medium supplemented with 1 mM sodium pyruvate and 50 μg/ml gentamycin. The assay was done in flat bottomed 96-well microtiter plates. Culture medium was removed from the wells by inverting and blotting the plate, fifty μl of MTT solution was added to the cells in each well, and each plate was incubated at 37° C. in an atmosphere of 5% CO2 in air. After incubation, each plate was centrifuged for 5 minutes at 8000×g and excess MTT removed by inverting and blotting. Fifty μl of 95% ethanol was added to each well and the plate was shaken (speed 6.5 for 15 minutes) to solubilize the formazan in each well. The optical density of each well was measured using an automatic plate reader with a test wavelength of 570 nm and a reference wavelength of 630 nm.
(§3) The in vitro effects of the novel compounds as compared to vinblastine and vincristine on three human colon cancer cell lines and one non-transformedhuman cell line were determined by the following procedure.
(§4) The non-transformed human fibroblast cell line, WI-38 and two of the human colon cancer cell lines, COLO-320-DM and HT-29, were obtained from the American Type Culture Collection, Rockville, MD and the third human colon cancer cell line, OM-1, was supplied by E. I. du Pont de Nemours and Co., Inc., Glenholden, PA. Both OM-1 and COLO-320-DM cells were maintained by serial passage in RPMI 1640 tissue culture medium supplemented to 10% (v/v) with heat-inactivated FBS. HT-29 cells were similarly maintained in McCoys 5A tissue culture medium supplemented with 10% heat-inactivated FBS. COLO-320-DM cells were detached by gentle scraping while HT-29 and OM-1 cells were detached using 0.25% trypsin and 0.05% trypsin, 0.5 mM EDTA solutions respectively. All cultures were incubated at 37° C. in a humidified environment of 5% CO2 in air. Experiments were conducted in 96-well flat-bottomed plates. The initial cell seeds per well for each cell line were 4,000 for WI- 38; 2,000 for COLO-320-DM; 750 for HT-29; and 3,000 for OM-1, each in the appropriate tissue culture medium. Cells were plated 24 hours before test compound was added to allow cells to recover from the effects of physical scraping and trypsinization. Varying log10 dilutions of drug were added to triplicate sets of wells and cultures were incubated for 6 days at 37° in a humidified atmosphere of 5% CO2 in air. The number of cells per well at the end of the experiment was determined colorimetrically by the reduction of MTT as described above and the results for each compounds shown in Table II. For purposes of comparison, the concentration of each test compound required to reduce the final cell number to one-half of the number in drug-free control cultures (ID50) is shown in Table II.

Another data set deals with WI-38 fibroblast. Put plainly: MTT cell count (ID50), non-transformed human fibroblast cell line WI-38. Particulars: 6 days incubation. Also on record: unit not given here. The data set is classed as cell-based. The method, then:
as §1, §2, §3, §4

The subject of data set [1] is P388 multiple-drug resistant cells. Put plainly: cells. In kind it is cell-based, murine. Particulars: for Fold-resistance: ID50 resistant cell line divided by ID50 wildtype cell line, 7200 min; for IC50: Mus musculus, P388, 120 h, read-out: ID50 P3/88/resist. Here is the method: as §1, §2
(§5) The differential in vitro activity of the above compounds as compared to vincristine and vinblastine with regard to P388 wild-type and P388 multiple-drug resistant leukemia was carried out by the following procedure.
(§6) Tissue culture-adapted lines of the P388 wild-type and P388 multiple-drug resistant cells (principally resistant to adriamycin) were obtained from the American Type Culture Collection, Rockville, MD. Experiments were conducted in 96-well microtiter plates with 300 cells from either line seeded in a volume of 200 μl of tissue culture medium (RPMI 1640 supplemented to 10% (v/v) with heat-inactivated fetal bovine serum (FBS) and to […] with 1-glutamine). Cells and varying log^10 dilutions of test compound were added to triplicate sets of wells on the same day and cultures were incubated for 5 days at 37° C. in a humidified atmosphere of 5% CO2 in air. The number of cells per well at the end of the experiment was determined colorimetrically by the reduction of MTT as described above.

Another data set has as its system OM-1. Put plainly: MTT cell count (ID50), human colon cancer cell line OM-1. In kind it is cell-based. Particulars: 144 h, read-out: ID50 OM-1. Here is the method:
as §1, §2, §3, §4

The next data set concerns P388 wild-type cells. Put plainly: MTT cell count (ID50), P388 wild-type leukemia cells in vitro. In kind it is cell-based, murine. Particulars: Mus musculus, P388, 120 h, read-out: ID50 P388/Wild. The method, then:
as §1, §2, §5, §6

Data set [2] can be described thus: In vivo effect against P388 leukemia in mice (TD50, ED50, T.I.). Particulars: mouse, in vivo, ip. The source says: (§7) The in vivo effect of the novel compounds of this invention against P388 leukemia as compared to vinblastine and vincristine, were compared by the following procedure.
(§8) P388 murine leukemia cells were obtained from Southern Research Institute, Birmingham, Ala., and were maintained by serial i.p. passage in C57BL/6 mice. Female (C57BL/6×DBA/2) F1 (BDF) mice of 6-8 weeks of age from Jackson Laboratories, Bar Harbor, Maine, received 1×10^6 P388 cells by i.p. inoculation on day 0. Compounds were dissolved in saline and administered i.p. to 10 tumor-bearing mice per dose level on days 0-4 and 7-9 using 5 to 10 log2 dilutions from a concentration known to be toxic. […] The therapeutic index (T.I.) for each compound was calculated by the formula: [formula]

Data set [3] relates to P388 leukemia. The data set is described as above. Particulars: for T.I. (therapeutic index): calculated from TD50 and ED50.
From the text: as §7, §8

Data set [4] concerns P388 leukemia. Put plainly: Increase in mean survival time of mice bearing P388 leukemia. The data set is classed as in vivo. Particulars: i.p.; for Increase in MST: vs vehicle. The method, then:
The efficacy of the remaining compounds is clearly documented by the fact that each increased the mean survival time of tumor-bearing mice in a dose-dependentmanner. […] The percent increase in mean survival time (MST) which appears in Table IV was calculated by the following formula: [formula]

The next data set concerns HT-29. Briefly: MTT cell count (ID50), human colon cancer cell line HT-29. In kind it is cell-based. Particulars: HT-29, 144 h, read-out: ID50 HT-29. The method, then: as §1, §2, §3, §4

Turning to `CC[C@]12C=CCN3CC[C@@]4(c5cc([C@@]6(C(=O)OC)C[C@H]7CN(CCc8c6[nH]c6ccccc86)C[C@H]6CCCC[C@H]67)c(OC)cc5N(C=O)[C@H]4[C@@](O)(C(=O)OC)[C@@H]1OC(C)=O)[C@@H]32` [D, (4aS,8aR,9R,11S)-15-[1,2,4,4a,5,6,7,8,8a,9,10,11,12,17-tetradecahydro-11-(methoxycarbonyl)-indolo(2',3':6,7,)azonino(1,2,3-bc)isoquinolin-11-yl]N-demethyl-N-formylvindoline], the IC50 in the data set with COLO-320-DM was found to be 0.4 µM; in data set [1], 2 µM; in the data set with OM-1, 0.06 µM; in the data set on P388 wild-type cells, 0.055 µM; in the data set with HT-29, 0.04 µM. Besides, the “ID50 WI-38 fibroblast” value in the data set with WI-38 fibroblast is listed as 4 × 10^-7. Moreover, the Fold-resistance in [1] came out at 36. In data set [2], this compound showed an LD50 of 0.045 mg/kg. In addition, in the data set on P388 leukemia [3] (Mus musculus, P388, ip, read-out: ED50 (extrapolated values)), the ED50 was 0.043 mg/kg. The “T.I. (therapeutic index)” value in the data set with P388 leukemia [3] was 1.1. Moreover, the “Mean Survival Time” value in the data set on P388 leukemia [4] (0.015 mg/kg (optimal dose), vehicle 10.7 days) was determined as 26.5 days. In addition, the “Increase in MST” value with P388 leukemia [4] (0.015 mg/kg (optimal dose)) amounted to 148%.

As for `CC[C@]12C=CCN3CC[C@@]4(c5cc([C@@]6(C(=O)OC)C[C@H]7CN(CCc8c6[nH]c6ccccc86)C[C@@H]6CCCC[C@H]76)c(OC)cc5N(C)[C@H]4[C@@](O)(C(=O)OC)[C@@H]1OC(C)=O)[C@@H]32` [E, (4aR,8aS,9R,11S)-15-[1,2,4,4a,5,6,7,8,8a,9,10,11,12,17-tetradecahydro-11-(methoxycarbonyl)-indolo(2',3':6,7,)azonino(1,2,3-bc)isoquinolin-11-yl] vindoline], the IC50 in the data set with COLO-320-DM is 0.3 µM; in data set [1], 0.43 µM; with OM-1 it was 0.4 µM; with P388 wild-type cells it was 0.068 µM; with HT-29 it was 0.3 µM. Also, in the data set with WI-38 fibroblast, the “ID50 WI-38 fibroblast” value was 3 × 10^-7. The Fold-resistance in data set [1] amounted to 6. This compound gave an LD50 in data set [2] of 0.18 mg/kg. Also, the “T.I. (therapeutic index)” value in the data set on P388 leukemia [3] is less than 1. Besides, the “Mean Survival Time” value with P388 leukemia [4] (0.12 mg/kg (optimal dose), vehicle 9.6 days (A), 10.1 days (E)) is reported as 21.5 days. Further, the “Increase in MST” value with P388 leukemia [4] (0.12 mg/kg (optimal dose)) is given as 113%.

The values are drawn from patent US4935509A (priority 1989, dated 1990).
